The structures appear in SMILES notation. Activity calls are given as the source filed them. The calls are words filed in the database; no cut-off is given here. A value given as a limit tells only on which side of the number the result lay.

The IC50 is the concentration at which inhibition is half-maximal.

Assay [1] has as its target T1, Adenosylhomocysteinase (Homo sapiens, UniProt P23526). Nature of the assay: Inhibition of human recombinant SAHH.
Target sequence in this assay (P23526 whole entry): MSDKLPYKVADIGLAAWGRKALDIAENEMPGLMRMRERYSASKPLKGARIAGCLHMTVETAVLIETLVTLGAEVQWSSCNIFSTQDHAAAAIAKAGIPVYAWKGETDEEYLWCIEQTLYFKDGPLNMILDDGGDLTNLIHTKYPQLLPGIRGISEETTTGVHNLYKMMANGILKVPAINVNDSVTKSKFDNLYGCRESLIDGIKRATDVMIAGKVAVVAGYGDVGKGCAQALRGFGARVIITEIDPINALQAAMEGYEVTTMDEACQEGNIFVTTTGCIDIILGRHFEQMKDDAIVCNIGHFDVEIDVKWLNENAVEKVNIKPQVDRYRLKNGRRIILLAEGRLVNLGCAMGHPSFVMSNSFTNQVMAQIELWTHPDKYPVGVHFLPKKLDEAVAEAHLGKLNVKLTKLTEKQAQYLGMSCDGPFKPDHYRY
Assay [2] in a line: Inhibition of Plasmodium falciparum recombinant SAHH.
Assay [3] concerns the target T1, Adenosylhomocysteinase. Nature of the assay: Inhibition of human recombinant SAHH at 1000 uM.
Target sequence in this assay (P23526 2-432 limits assumed): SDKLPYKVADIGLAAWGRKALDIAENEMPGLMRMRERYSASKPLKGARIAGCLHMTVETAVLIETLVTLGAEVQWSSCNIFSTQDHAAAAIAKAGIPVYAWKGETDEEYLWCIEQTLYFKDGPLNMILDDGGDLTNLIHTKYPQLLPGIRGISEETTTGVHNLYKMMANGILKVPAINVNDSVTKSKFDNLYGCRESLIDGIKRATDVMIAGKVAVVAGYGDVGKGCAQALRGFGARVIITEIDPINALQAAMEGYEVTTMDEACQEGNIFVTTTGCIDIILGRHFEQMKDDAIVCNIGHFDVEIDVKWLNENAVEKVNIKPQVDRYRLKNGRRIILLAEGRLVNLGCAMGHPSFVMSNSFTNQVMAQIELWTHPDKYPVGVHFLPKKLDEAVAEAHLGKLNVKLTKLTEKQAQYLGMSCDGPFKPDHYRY
Assay [4] concerns Plasmodium falciparum. Briefly: (§1) Inhibition of Plasmodium falciparum recombinant SAHH at 1000 uM.
A short description of assay [5]: as §1.

With `Nc1ncnc2c1ncn2[C@@H]1C[C@@H](N)[C@@H](O)[C@H]1O`, the IC50 in assay [1] and in assay [2] was over 500 µM each time. On to `[N-]=[N+]=N[C@@H]1C[C@@H](n2cnc3c(N)ncnc32)[C@H](O)[C@@H]1O`, for which the 50% inhibitory concentration (IC50) in assay [1] worked out at 163 µM; in assay [2], 90 µM. As to `Nc1ncnc2c1ncn2[C@@H]1C[C@H](OS(N)(=O)=O)[C@@H](O)[C@H]1O`, the outcome in assay [3] and in assay [4] was inactive. Turning to `Nc1ncnc2c1ncn2[C@@H]1C[C@H](OS(=O)(=O)O)[C@@H](O)[C@H]1O`, the result in assay [3] and in assay [4] was inactive. For the compound `Nc1nc(N)c2ncn([C@@H]3C[C@H](OS(N)(=O)=O)[C@@H](O)[C@H]3O)c2n1`, the result in assay [3] and in assay [4] was inactive. In the case of `Nc1nc(N)c2ncn([C@@H]3C[C@@H](OS(=O)(=O)O)[C@@H](O)[C@H]3O)c2n1`, the result in assay [3] and in assay [4] was inactive.

On to `Nc1ncnc2c1ncn2[C@@H]1C[C@H](F)[C@@H](O)[C@H]1O`, for which the IC50 in assay [2] was determined as 200 µM. In assay [3], the outcome was inactive. As to `Nc1ncnc2c1ncn2[C@@H]1CC[C@@H](O)[C@H]1O`, the IC50 in assay [5] is 9 µM. For the compound `Nc1nc(F)nc2c1ncn2[C@@H]1C[C@H](O)[C@@H](O)[C@H]1O`, the IC50 in assay [1] was 13 µM; in assay [2], 63 µM. Regarding `Nc1nc(N)c2ncn([C@@H]3C[C@H](OS(=O)(=O)O)[C@@H](O)[C@H]3O)c2n1`, the outcome in assay [3] and in assay [4] was inactive. `Nc1nc(N)c2ncn([C@@H]3C[C@@H](OS(N)(=O)=O)[C@@H](O)[C@H]3O)c2n1`: the result in assay [3] and in assay [4] was inactive. Take `[N-]=[N+]=N[C@H]1C[C@@H](n2cnc3c(N)ncnc32)[C@H](O)[C@@H]1O`: the half-inhibitory concentration (IC50) in assay [1] was determined as 123 µM; in assay [2], 117 µM. Regarding `Nc1ncnc2c1ncn2[C@@H]1C[C@@H](OS(=O)(=O)O)[C@@H](O)[C@H]1O`, the result in assay [3] and in assay [4] was inactive. For `Nc1ncnc2c1ncn2[C@@H]1C[C@H](N)[C@@H](O)[C@H]1O`, the half-inhibitory concentration (IC50) came to 76 µM in assay [1] and 126 µM in assay [2].

On to `Nc1ncnc2c1ncn2[C@@H]1C[C@@H](OS(N)(=O)=O)[C@@H](O)[C@H]1O`, for which the outcome in assay [3] and in assay [4] was inactive. Turning to `Nc1ncnc2c1ncn2[C@@H]1C[C@@H](O)[C@@H](O)[C@H]1O`, the IC50 in assay [1] worked out at 7.6 µM; in assay [2] it was 79 µM.

As to `Nc1ncnc2c1ncn2[C@@H]1C[C@@H](F)[C@@H](O)[C@H]1O`, the outcome in assay [3] and in assay [4] was inactive. Regarding `Nc1ncnc2c1ncn2[C@@H]1C[C@H](O)[C@@H](O)[C@H]1O` [NORARISTEROMYCIN], the IC50 worked out at 3.1 µM in assay [1] and 1.1 µM in assay [2].

The values are drawn from ChEMBL document CHEMBL1144794, “Synthesis of 4'-modified noraristeromycins to clarify the effect of the 4'-hydroxyl groups for inhibitory activity against S-adenosyl-L-homocysteine hydrolase” (Bioorg Med Chem Lett, 2008).
